Measured values as given in PMC8885877, “STAT3 inhibition suppresses adaptive survival of ALK-rearranged lung cancer cells through transcriptional modulation of apoptosis” (NPJ Precision Oncology, 2022).
pIC50: −log10 of the molar value.

Biological target: STAT3 (Homo sapiens, UniProt P40763)
Test: Alpha-based competitive binding assay with biotinylated recombinant STAT3 and FITC-labeled phospho-Tyr peptide
Description: Alpha-based competitive binding assay with biotinylated recombinant STAT3 and FITC-labeled phospho-Tyr peptide on STAT3 | inhibited the binding of phospho-Tyr peptide to the SH2 domain of STAT3 in a concentration-dependent manner with IC50 values

Sequence of STAT3 (P40763 2-770): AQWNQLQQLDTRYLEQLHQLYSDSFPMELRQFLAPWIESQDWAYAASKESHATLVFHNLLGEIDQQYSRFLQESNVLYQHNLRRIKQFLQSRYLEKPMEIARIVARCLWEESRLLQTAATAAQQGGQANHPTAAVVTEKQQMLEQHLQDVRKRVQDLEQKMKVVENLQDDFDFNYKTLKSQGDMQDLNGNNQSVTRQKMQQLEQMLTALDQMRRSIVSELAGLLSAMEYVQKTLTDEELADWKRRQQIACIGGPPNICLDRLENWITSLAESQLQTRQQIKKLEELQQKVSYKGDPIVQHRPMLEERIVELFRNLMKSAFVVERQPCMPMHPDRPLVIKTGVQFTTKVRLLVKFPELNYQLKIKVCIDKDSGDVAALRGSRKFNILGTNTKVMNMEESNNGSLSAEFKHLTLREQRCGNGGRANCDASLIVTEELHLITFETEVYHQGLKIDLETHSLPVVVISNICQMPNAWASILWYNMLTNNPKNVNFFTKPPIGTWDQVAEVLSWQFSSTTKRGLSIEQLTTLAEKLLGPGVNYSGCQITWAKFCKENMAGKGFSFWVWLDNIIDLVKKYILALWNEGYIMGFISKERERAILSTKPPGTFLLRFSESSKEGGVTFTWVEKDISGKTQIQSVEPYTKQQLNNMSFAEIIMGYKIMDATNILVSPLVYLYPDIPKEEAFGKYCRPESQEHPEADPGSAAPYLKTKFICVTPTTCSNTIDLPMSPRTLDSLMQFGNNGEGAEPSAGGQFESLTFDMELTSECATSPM

For YHO-1701, the pIC50 was 5.60.
